Experimental data: ChEMBL document CHEMBL1201862, “PubChem BioAssay data set” (2004)
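Following 48 hours of exposure in 96-well plates, responses at five concentrations were used to interpolate endpoints linearly. GI50 = concentration required for 50% inhibition of growth.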 Calls of active or inactive are those of the source. No stated cut-off is given here; in the data, active = GI50 up to about 1.1 µM and inactive = higher.

Key:
Assay in all cases: DTP human tumour cell line panel, 48 h
A549 = test system: A549
KM12 = test system: KM12
NCI-H226 = test system: NCI-H226
HCC 2998 = test system: HCC 2998
SN12C = test system: SN12C
NCI/ADR-RES = test system: NCI/ADR-RES
HOP-62 = test system: HOP-62
U-251 = test system: U-251
UACC-62 = test system: UACC-62
NCI-H23 = test system: NCI-H23
SF-539 = test system: SF-539
K562 = test system: K562
Hs-578T = test system: Hs-578T
CAKI-1 = test system: CAKI-1
MCF7 = test system: MCF7
SK-MEL-5 = test system: SK-MEL-5
RXF 393 = test system: RXF 393
MDA-MB-435 = test system: MDA-MB-435
CCRF-CEM = test system: CCRF-CEM
NCI-H460 = test system: NCI-H460
UACC-257 = test system: UACC-257
DU-145 = test system: DU-145
M14 = test system: M14
OVCAR-5 = test system: OVCAR-5
SNB-19 = test system: SNB-19
IGROV-1 = test system: IGROV-1
Malme-3M = test system: Malme-3M
HCT-15 = test system: HCT-15
HL-60 = test system: HL-60
COLO 205 = test system: COLO 205
786-0 = test system: 786-0
HT-29 = test system: HT-29
PC-3 = test system: PC-3
SF-268 = test system: SF-268
MDA-N = test system: MDA-N
UO-31 = test system: UO-31
RPMI-8226 = test system: RPMI-8226
OVCAR-4 = test system: OVCAR-4
HOP-92 = test system: HOP-92
SNB-75 = test system: SNB-75
BT-549 = test system: BT-549
NCI-H522 = test system: NCI-H522
LOX IMVI = test system: LOX IMVI
SK-OV-3 = test system: SK-OV-3
OVCAR-3 = test system: OVCAR-3
SF-295 = test system: SF-295
MOLT-4 = test system: MOLT-4
T47D = test system: T47D
ACHN = test system: ACHN
SW-620 = test system: SW-620
TK-10 = test system: TK-10
OVCAR-8 = test system: OVCAR-8
SK-MEL-2 = test system: SK-MEL-2
MDA-MB-231 = test system: MDA-MB-231
SR = test system: SR
HCT-116 = test system: HCT-116
EKVX = test system: EKVX
SK-MEL-28 = test system: SK-MEL-28
A498 = test system: A498

Cn1c2ccccc2c(=NNc2ccc(S(=O)(=O)N=C(N)N)cc2)c2ccccc21
GI50 (A549): 10 µM (inactive) | GI50 (KM12): 7.98 µM (inactive) | GI50 (NCI-H226): 4.49 µM (inactive) | GI50 (HCC 2998): 6.25 µM (inactive) | GI50 (SN12C): 8.63 µM (inactive) | GI50 (NCI/ADR-RES): 21.8 µM (inactive) | GI50 (HOP-62): 11.8 µM (inactive) | GI50 (U-251): 8.02 µM (inactive) | GI50 (UACC-62): 15.4 µM (inactive) | GI50 (NCI-H23): 9.64 µM (inactive) | GI50 (SF-539): 13.8 µM (inactive) | GI50 (K562): 4.39 µM (inactive) | GI50 (Hs-578T): 17.6 µM (inactive) | GI50 (CAKI-1): 10.8 µM (inactive) | GI50 (MCF7): 3.14 µM (inactive) | GI50 (SK-MEL-5): 5.41 µM (inactive) | GI50 (RXF 393): 0.611 µM (active) | GI50 (MDA-MB-435): 11 µM (inactive) | GI50 (CCRF-CEM): 6.68 µM (inactive) | GI50 (NCI-H460): 3.37 µM (inactive) | GI50 (UACC-257): 15.5 µM (inactive) | GI50 (DU-145): 11.2 µM (inactive) | GI50 (M14): 16.3 µM (inactive) | GI50 (OVCAR-5): 6.24 µM (inactive) | GI50 (SNB-19): 10.6 µM (inactive) | GI50 (IGROV-1): 11.7 µM (inactive) | GI50 (Malme-3M): 8.26 µM (inactive) | GI50 (HCT-15): 10.2 µM | GI50 (HL-60): 14.1 µM (inactive) | GI50 (COLO 205): 5.53 µM (inactive) | GI50 (786-0): 5.98 µM (inactive) | GI50 (HT-29): 3.8 µM (inactive) | GI50 (PC-3): 7.94 µM (inactive) | GI50 (SF-268): 5.75 µM (inactive) | GI50 (MDA-N): 12.4 µM (inactive) | GI50 (UO-31): 4.33 µM (inactive) | GI50 (RPMI-8226): 7.8 µM (inactive) | GI50 (OVCAR-4): 3.37 µM (inactive) | GI50 (HOP-92): 12.1 µM (inactive) | GI50 (SNB-75): 12.2 µM (inactive) | GI50 (BT-549): 9.42 µM (inactive) | GI50 (NCI-H522): 3.82 µM (inactive) | GI50 (LOX IMVI): 5.02 µM (inactive) | GI50 (SK-OV-3): 8.93 µM (inactive) | GI50 (OVCAR-3): 7.35 µM (inactive) | GI50 (SF-295): 13.3 µM (inactive) | GI50 (MOLT-4): 3.31 µM (inactive) | GI50 (T47D): 6.35 µM (inactive) | GI50 (ACHN): 4.55 µM (inactive) | GI50 (SW-620): 7.55 µM (inactive) | GI50 (TK-10): 7.6 µM (inactive) | GI50 (OVCAR-8): 6.03 µM (inactive) | GI50 (SK-MEL-2): 13.5 µM (inactive) | GI50 (MDA-MB-231): 11.4 µM (inactive) | GI50 (SR): 5.01 µM (inactive) | GI50 (HCT-116): 5.65 µM (inactive) | GI50 (EKVX): 5.57 µM (inactive)

NCCN1C(=O)c2cc(Cl)c(Cl)cc2C1(O)c1ccc(Cl)cc1 (stereo not drawn)
GI50 (A549): 2.09 µM (inactive) | GI50 (KM12): 2.32 µM (inactive) | GI50 (SN12C): 3.72 µM (inactive) | GI50 (NCI/ADR-RES): 2.42 µM (inactive) | GI50 (HOP-62): 1.85 µM (inactive) | GI50 (U-251): 1.74 µM (inactive) | GI50 (UACC-62): 1.79 µM (inactive) | GI50 (NCI-H23): 2.69 µM (inactive) | GI50 (SF-539): 1.7 µM (inactive) | GI50 (K562): 1.91 µM (inactive) | GI50 (Hs-578T): 2.74 µM (inactive) | GI50 (CAKI-1): 2.54 µM (inactive) | GI50 (MCF7): 1.83 µM (inactive) | GI50 (SK-MEL-5): 1.6 µM (inactive) | GI50 (RXF 393): 1.59 µM (inactive) | GI50 (SK-MEL-28): 1.75 µM (inactive) | GI50 (MDA-MB-435): 1.68 µM (inactive) | GI50 (CCRF-CEM): 3.61 µM (inactive) | GI50 (NCI-H460): 1.79 µM (inactive) | GI50 (UACC-257): 1.87 µM (inactive) | GI50 (DU-145): 2.69 µM (inactive) | GI50 (M14): 1.77 µM (inactive) | GI50 (OVCAR-5): 3.33 µM (inactive) | GI50 (SNB-19): 2.82 µM (inactive) | GI50 (IGROV-1): 2.07 µM (inactive) | GI50 (Malme-3M): 1.71 µM (inactive) | GI50 (HCT-15): 2.4 µM | GI50 (HL-60): 1.67 µM (inactive) | GI50 (COLO 205): 1.65 µM (inactive) | GI50 (786-0): 1.61 µM (inactive) | GI50 (HT-29): 1.89 µM (inactive) | GI50 (PC-3): 4.98 µM (inactive) | GI50 (SF-268): 2.32 µM (inactive) | GI50 (MDA-N): 1.85 µM (inactive) | GI50 (UO-31): 4.86 µM (inactive) | GI50 (RPMI-8226): 2.44 µM (inactive) | GI50 (OVCAR-4): 1.76 µM (inactive) | GI50 (HOP-92): 2.91 µM (inactive) | GI50 (SNB-75): 2.28 µM (inactive) | GI50 (BT-549): 3.62 µM (inactive) | GI50 (LOX IMVI): 1.7 µM (inactive) | GI50 (SK-OV-3): 13.5 µM (inactive) | GI50 (OVCAR-3): 2.19 µM (inactive) | GI50 (SF-295): 2.01 µM (inactive) | GI50 (MOLT-4): 2.05 µM (inactive) | GI50 (T47D): 2.11 µM (inactive) | GI50 (ACHN): 2.19 µM (inactive) | GI50 (SW-620): 1.9 µM (inactive) | GI50 (TK-10): 1.92 µM (inactive) | GI50 (OVCAR-8): 2.03 µM (inactive) | GI50 (SK-MEL-2): 1.84 µM (inactive) | GI50 (MDA-MB-231): 2.01 µM (inactive) | GI50 (SR): 2.02 µM (inactive) | GI50 (HCT-116): 1.72 µM (inactive) | GI50 (A498): 2.92 µM (inactive) | GI50 (EKVX): 2.23 µM (inactive)

N#Cc1c(-c2cccc(Cl)c2)cc(-c2ccc(Cl)cc2)nc1N
GI50 (A549): 17.5 µM (inactive) | GI50 (KM12): 25.2 µM (inactive) | GI50 (NCI-H226): 16.3 µM (inactive) | GI50 (SN12C): 17.3 µM (inactive) | GI50 (NCI/ADR-RES): 22 µM (inactive) | GI50 (HOP-62): 17.3 µM (inactive) | GI50 (U-251): 16.6 µM (inactive) | GI50 (UACC-62): 16.5 µM (inactive) | GI50 (NCI-H23): 17.5 µM (inactive) | GI50 (SF-539): 17.8 µM (inactive) | GI50 (K562): 34.4 µM (inactive) | GI50 (Hs-578T): 21.1 µM (inactive) | GI50 (CAKI-1): 26.1 µM (inactive) | GI50 (MCF7): 16.3 µM (inactive) | GI50 (SK-MEL-5): 16.1 µM (inactive) | GI50 (RXF 393): 16.7 µM (inactive) | GI50 (MDA-MB-435): 19.1 µM (inactive) | GI50 (CCRF-CEM): 18.3 µM (inactive) | GI50 (NCI-H460): 18.8 µM (inactive) | GI50 (UACC-257): 15.3 µM (inactive) | GI50 (DU-145): 32.9 µM (inactive) | GI50 (M14): 19.1 µM (inactive) | GI50 (OVCAR-5): 21.7 µM (inactive) | GI50 (SNB-19): 11.9 µM (inactive) | GI50 (IGROV-1): 10.1 µM (inactive) | GI50 (Malme-3M): 28.1 µM (inactive) | GI50 (HCT-15): 17.1 µM | GI50 (HL-60): 38.1 µM (inactive) | GI50 (COLO 205): 14.6 µM (inactive) | GI50 (786-0): 17 µM (inactive) | GI50 (HT-29): 24.3 µM (inactive) | GI50 (PC-3): 17.2 µM (inactive) | GI50 (SF-268): 18.5 µM (inactive) | GI50 (MDA-N): 20 µM (inactive) | GI50 (UO-31): 14.2 µM (inactive) | GI50 (RPMI-8226): 18.1 µM (inactive) | GI50 (OVCAR-4): 15.7 µM (inactive) | GI50 (HOP-92): 10.9 µM (inactive) | GI50 (BT-549): 18.6 µM (inactive) | GI50 (NCI-H522): 15.1 µM (inactive) | GI50 (LOX IMVI): 17.1 µM (inactive) | GI50 (SK-OV-3): 18.3 µM (inactive) | GI50 (OVCAR-3): 23.7 µM (inactive) | GI50 (SF-295): 17.2 µM (inactive) | GI50 (MOLT-4): 19 µM (inactive) | GI50 (T47D): 27 µM (inactive) | GI50 (ACHN): 17.7 µM (inactive) | GI50 (SW-620): 17.5 µM (inactive) | GI50 (TK-10): 19.7 µM (inactive) | GI50 (OVCAR-8): 24.6 µM (inactive) | GI50 (SK-MEL-2): 18.1 µM (inactive) | GI50 (MDA-MB-231): 16.1 µM (inactive) | GI50 (SR): 15.3 µM (inactive) | GI50 (HCT-116): 16.5 µM (inactive) | GI50 (EKVX): 15.6 µM (inactive)
